Test results published in US20110306622A1, “METHODS OF TREATING HEMATOLOGICAL DISORDERS WITH QUINAZOLINONE COMPOUNDS IN SELECTED SUBJECTS” (Calitoga Pharmaceuticals, Inc., priority 2010, published 2011).

What was measured:
[1] = test system: CCL17, CCL22, CXCL13 and TNF-alpha levels in iNHL patients; test: Plasma chemokine and TNF-alpha levels and tumor size in iNHL patients, pre-treatment vs Day 28; format: in vivo, human
Procedure: (§1) 103 patients were enrolled in the study, including 40 with MCL and 63 with iNHL. Among patients with iNHL, all 4 subtypes were represented. Patients were heavily treated with chemoimmunotherapy. Patients had received a median of 4 prior regimens and some had received as many as 14 prior regimens. Most patients had received several types of chemoimmunotherapy for NHL. Disease was commonly refractory to available therapies.
(§2) Patients were treated over a broad range of doses of Compound A using once-per-day (QD) and twice-per-day (BID) continuous and intermittent schedules. Patients remained on therapy for protracted periods; many patients with iNHL continued on treatment beyond 12 cycles (48 weeks).
(§3) Prior to treatment, the concentration of CCL17, CCL22, CXCL13, and TNF-alpha was evaluated. On the last day of the cycle, the plasma concentration of the chemokines and TNF-alpha was re-assessed. Table 3 (for MCL) and Table 4 (for iNHL) below summarize the chemokine and TNF-alpha concentration at the baseline and at Day 28 of the cycle.

PI3Kγ = target: T1, PI3Kγ (Mus musculus, UniProt Q9JHG7); test: Isoform specific cell-based assay: C5a induced pAKT in monocyte cell line (RAW-264); settings: n = 11
T1 construct: endogenous in cells; host or cells: RAW-264 monocyte cell line
Procedure: (§4) Swiss-3T3 fibroblasts and RAW-264 were seeded on a 96-well tissue culture plate and allowed to reach at least 90% confluency. […] Akt phosphorylation and total AKT was detected by ELISA. Purified B-cells were treated with either vehicle or serial dilutions of compound I for 30 minutes at room temperature before the addition of purified goat anti-human IgM. Results are expressed as relative [^3H] thymidine incorporation induced by IgM crosslinking.

[2] = test system: CCL3, CCL4 and CXCL13 chemokine levels in CLL patients; test: Plasma chemokine levels in CLL patients before and after one 28-day cycle of treatment (multiplexed bead suspension arrays); format: in vivo, human
Procedure: Plasma was stored at −70 degrees centigrade. Before analysis, samples were thawed overnight at 4 degrees centigrade and centrifuged at 1,500×g to remove debris. Chemokines were analyzed with commercially available multiplexed bead suspension arrays (MBA, Millipore). MBAs were analyzed using a Luminex 200 instrument and data was organized and analyzed using 3.1 xPONENT software. The plasma concentration of 14 patients with CLL was assessed at pre-dose baseline concentrations. The average plasma concentration of CCL3 (186 pg/mL) and CCL4 (303 pg/mL) at the pre-dose baseline are approximately 5 times higher in these subject compared to normal subjects. The average plasma concentration of CXCL13 (316 pg/mL) at pre-dose baseline was approximately 10 times higher than normal subjects. […] In the first week of dosing across all dose levels evaluated, the concentration of CCL3, CCL4 and CXCL13 were decreased by 2 to 5-fold. On the last day of the cycle, the plasma concentration of the chemokines was reassessed, see FIG. 1.

PI3Kalpha = PI3Kalpha (Mus musculus, UniProt P42337); test: Isoform specific cell-based assay: PDGF induced pAKT in fibroblast cell line (Swiss-3T3); settings: n = 12
Procedure: as §4

[3] = test system: CCL3, CCL17 and TNF-alpha in CLL patients; test: Clinical evaluation in CLL patients: change in plasma CCL3, CCL17 and TNF-alpha compared to decrease in lymph node size; format: in vivo, human; settings: responders = lymph node decreases of 50% or greater, FIG. 10
Procedure: The concentration of CCL3, CCL17 and TNF-alpha were determined in the plasma samples by a bead-based ELISA technology. The resulting plasma concentrations of these factors were compared to decrease in lymph node size. Patients that had lymph node decreases of 50% or greater were designated as “responders” to the drug.

[4] = test system: BCR-induced secretion of CCL3 and CCL4 by CLL cells; test: BCR-induced (anti-IgM) secretion of chemokines CCL3 and CCL4 by CLL cells, ELISA of supernatants; format: cell-based; settings: medium with anti-IgM plus compound, 24 hours, anti-IgM alone raised levels roughly 5 to 6 fold
[5] = test system: CCL17, CCL22, CXCL13 and TNF-alpha levels in MCL patients; test: Plasma chemokine and TNF-alpha levels and tumor size in MCL patients, pre-treatment vs Day 28; format: in vivo, human
Procedure: as §1, §2, §3

T1 sequence (Q9JHG7 whole entry, canonical isoform): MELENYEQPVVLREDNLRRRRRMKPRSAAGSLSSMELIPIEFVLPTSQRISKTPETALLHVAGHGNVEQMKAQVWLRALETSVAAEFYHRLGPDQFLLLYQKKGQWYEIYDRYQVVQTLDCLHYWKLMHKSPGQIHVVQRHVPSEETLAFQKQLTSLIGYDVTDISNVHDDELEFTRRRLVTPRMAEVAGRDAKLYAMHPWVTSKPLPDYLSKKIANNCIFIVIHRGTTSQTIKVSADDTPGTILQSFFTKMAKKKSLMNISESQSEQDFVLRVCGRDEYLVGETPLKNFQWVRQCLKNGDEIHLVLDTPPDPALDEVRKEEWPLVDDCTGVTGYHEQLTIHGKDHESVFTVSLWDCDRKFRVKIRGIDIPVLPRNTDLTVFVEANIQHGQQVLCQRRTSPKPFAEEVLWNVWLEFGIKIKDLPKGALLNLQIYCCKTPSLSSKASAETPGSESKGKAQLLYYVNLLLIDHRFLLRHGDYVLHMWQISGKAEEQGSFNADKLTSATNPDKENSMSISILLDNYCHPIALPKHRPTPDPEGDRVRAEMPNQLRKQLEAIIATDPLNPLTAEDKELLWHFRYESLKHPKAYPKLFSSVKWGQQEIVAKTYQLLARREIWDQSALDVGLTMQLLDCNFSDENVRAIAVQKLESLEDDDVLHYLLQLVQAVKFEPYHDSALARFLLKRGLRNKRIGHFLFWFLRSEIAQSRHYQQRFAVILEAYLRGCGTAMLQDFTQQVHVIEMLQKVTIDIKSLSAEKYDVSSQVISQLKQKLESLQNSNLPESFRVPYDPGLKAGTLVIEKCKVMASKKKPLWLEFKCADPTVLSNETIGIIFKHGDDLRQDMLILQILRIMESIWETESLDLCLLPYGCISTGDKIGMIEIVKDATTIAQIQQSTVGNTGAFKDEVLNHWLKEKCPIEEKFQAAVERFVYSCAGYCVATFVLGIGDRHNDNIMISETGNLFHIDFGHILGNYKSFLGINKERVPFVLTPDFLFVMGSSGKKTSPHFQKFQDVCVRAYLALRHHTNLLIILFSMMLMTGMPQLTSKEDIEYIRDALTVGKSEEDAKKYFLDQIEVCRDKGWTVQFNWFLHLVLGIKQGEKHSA
T1 sequence (Q5SW28 whole entry partner, canonical isoform): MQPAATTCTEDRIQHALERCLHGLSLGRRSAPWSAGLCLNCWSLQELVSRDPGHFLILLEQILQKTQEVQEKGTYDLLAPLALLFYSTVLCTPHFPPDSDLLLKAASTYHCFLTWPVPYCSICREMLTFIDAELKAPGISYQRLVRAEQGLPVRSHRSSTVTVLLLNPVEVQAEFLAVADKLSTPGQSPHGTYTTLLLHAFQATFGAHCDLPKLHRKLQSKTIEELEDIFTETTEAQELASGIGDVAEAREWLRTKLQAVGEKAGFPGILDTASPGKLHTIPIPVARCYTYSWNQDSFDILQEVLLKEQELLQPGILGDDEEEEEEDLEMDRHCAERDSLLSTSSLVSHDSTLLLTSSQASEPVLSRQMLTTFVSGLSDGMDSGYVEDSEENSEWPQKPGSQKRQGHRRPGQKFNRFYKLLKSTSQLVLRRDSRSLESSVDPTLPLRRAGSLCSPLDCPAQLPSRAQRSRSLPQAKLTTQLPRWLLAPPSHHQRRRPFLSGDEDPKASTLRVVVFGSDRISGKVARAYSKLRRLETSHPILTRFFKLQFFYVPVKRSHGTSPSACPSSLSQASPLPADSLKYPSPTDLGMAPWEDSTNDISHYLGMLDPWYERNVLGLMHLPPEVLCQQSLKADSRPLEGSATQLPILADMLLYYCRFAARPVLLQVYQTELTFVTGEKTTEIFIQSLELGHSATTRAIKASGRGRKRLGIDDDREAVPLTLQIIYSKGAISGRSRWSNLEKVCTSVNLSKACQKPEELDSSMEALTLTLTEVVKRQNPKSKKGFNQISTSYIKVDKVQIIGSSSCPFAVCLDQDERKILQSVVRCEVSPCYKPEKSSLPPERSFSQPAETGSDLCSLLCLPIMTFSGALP
Sequence of PI3Kalpha (P42337 whole entry, canonical isoform): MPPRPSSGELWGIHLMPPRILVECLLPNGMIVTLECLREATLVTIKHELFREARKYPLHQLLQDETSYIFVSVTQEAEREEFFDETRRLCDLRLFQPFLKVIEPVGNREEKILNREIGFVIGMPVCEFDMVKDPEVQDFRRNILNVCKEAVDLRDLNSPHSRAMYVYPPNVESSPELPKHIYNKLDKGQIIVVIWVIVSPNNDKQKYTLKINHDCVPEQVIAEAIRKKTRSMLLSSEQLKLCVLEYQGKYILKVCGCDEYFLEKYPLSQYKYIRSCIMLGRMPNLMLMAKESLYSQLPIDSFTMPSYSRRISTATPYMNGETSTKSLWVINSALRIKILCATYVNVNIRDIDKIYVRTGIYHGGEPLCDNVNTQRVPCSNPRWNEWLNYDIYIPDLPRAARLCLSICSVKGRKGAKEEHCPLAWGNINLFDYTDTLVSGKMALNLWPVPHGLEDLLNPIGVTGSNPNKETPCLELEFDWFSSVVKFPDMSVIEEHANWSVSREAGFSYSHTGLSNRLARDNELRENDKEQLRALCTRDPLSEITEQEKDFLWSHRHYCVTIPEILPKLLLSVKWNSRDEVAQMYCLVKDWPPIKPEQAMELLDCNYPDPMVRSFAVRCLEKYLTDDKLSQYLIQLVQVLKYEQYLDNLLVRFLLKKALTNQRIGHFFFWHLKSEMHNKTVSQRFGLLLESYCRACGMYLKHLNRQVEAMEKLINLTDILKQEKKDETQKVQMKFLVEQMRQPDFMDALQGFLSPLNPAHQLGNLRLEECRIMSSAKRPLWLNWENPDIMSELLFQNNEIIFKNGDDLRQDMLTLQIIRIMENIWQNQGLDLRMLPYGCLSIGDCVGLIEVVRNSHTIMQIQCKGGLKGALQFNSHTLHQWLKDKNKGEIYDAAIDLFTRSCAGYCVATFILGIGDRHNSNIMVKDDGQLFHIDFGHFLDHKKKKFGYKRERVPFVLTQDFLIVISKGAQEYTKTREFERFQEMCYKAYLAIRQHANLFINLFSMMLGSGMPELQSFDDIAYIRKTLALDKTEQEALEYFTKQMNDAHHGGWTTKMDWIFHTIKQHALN
Sequence of PI3Kalpha (P26450 whole entry partner, canonical isoform): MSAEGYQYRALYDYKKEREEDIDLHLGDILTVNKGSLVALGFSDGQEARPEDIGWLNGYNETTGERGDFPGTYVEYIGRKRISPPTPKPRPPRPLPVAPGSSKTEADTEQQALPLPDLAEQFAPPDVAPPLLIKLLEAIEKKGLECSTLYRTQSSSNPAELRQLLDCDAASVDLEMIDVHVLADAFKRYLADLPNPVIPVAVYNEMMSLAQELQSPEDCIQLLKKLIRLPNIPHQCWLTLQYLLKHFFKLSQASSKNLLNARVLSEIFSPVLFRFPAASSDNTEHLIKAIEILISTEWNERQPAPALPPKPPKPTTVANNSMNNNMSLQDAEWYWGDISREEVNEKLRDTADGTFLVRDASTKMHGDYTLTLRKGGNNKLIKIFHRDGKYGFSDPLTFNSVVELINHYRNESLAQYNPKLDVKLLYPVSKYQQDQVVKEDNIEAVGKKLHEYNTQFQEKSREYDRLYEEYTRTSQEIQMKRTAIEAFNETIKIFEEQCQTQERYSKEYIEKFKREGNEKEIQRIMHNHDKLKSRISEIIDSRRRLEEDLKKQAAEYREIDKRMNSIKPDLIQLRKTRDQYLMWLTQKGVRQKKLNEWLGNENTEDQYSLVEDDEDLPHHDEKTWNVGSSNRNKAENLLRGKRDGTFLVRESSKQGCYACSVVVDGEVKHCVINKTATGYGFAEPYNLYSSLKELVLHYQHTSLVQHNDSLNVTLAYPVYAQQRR

CC[C@H](Nc1ncnc2[nH]cnc12)c1nc2cccc(F)c2c(=O)n1-c1ccccc1 [Compound A, (S)-2-(1-(9H-purin-6-ylamino)propyl)-5-fluoro-3-phenylquinazolin-4(3H)-one]
TNF-alpha plasma concentration ([1]; Day 28 (pre-treatment 41)): 19 pg/mL
CCL17 plasma concentration ([1]; Day 28 (pre-treatment 234)): 88 pg/mL
CXCL13 plasma concentration ([1]; Day 28 (pre-treatment 470)): 161 pg/mL
CCL22 plasma concentration ([1]; Day 28 (pre-treatment 2602)): 1166 pg/mL
% reduction of CCL17 ([1]; Day 28 vs pre-treatment): 62%
% reduction of CCL22 ([1]; Day 28 vs pre-treatment): 55%
% reduction of CXCL13 ([1]; Day 28 vs pre-treatment): 66%
% reduction of TNF-alpha ([1]; Day 28 vs pre-treatment): 54%
clinical activity (tumor size) ([1]; FIG. 4b): reduction in tumor size
EC50 (PI3Kγ): 3.89 µM
clinical activity (lymphadenopathy) ([2]; 50 to 350 mg BID, 28-day dosing period): decrease in lymphadenopathy
CCL3 plasma concentration ([2]; Day 28 of cycle 1, 50 to 350 mg BID, average (baseline 186)): 29 pg/mL
CCL4 plasma concentration ([2]; Day 28 of cycle 1, 50 to 350 mg BID, average (baseline 303)): 70 pg/mL
CXCL13 plasma concentration ([2]; Day 28 of cycle 1, 50 to 350 mg BID, average (baseline 316)): 40 pg/mL
% reduction of CCL3 ([2]; Day 28 vs baseline): 84%
% reduction of CCL4 ([2]; Day 28 vs baseline): 77%
% reduction of CXCL13 ([2]; Day 28 vs baseline): 87%
decrease of the concentration of CCL3, CCL4 and CXCL13 ([2]; first week of dosing, across all dose levels evaluated (50 to 350 mg BID)): 2 to 5 fold
EC50 (PI3Kalpha): > 20 µM
change from predose to Day 28 of CCL3, CCL17 and TNF-alpha, responders vs non-responders [3]: significantly greater for individuals that responded to the drug than those that did not
CCL3 and CCL4 secretion by anti-IgM stimulated CLL cells [4]: effective suppression of chemokine secretion to levels nearing the control values
TNF-alpha plasma concentration ([5]; Day 28 (pre-treatment 65)): 37 pg/mL
CCL17 plasma concentration ([5]; Day 28 (pre-treatment 194)): 60 pg/mL
CXCL13 plasma concentration ([5]; Day 28 (pre-treatment 437)): 227 pg/mL
CCL22 plasma concentration ([5]; Day 28 (pre-treatment 2593)): 1286 pg/mL
% reduction of CCL17 ([5]; Day 28 vs pre-treatment): 69%
% reduction of CCL22 ([5]; Day 28 vs pre-treatment): 50%
% reduction of CXCL13 ([5]; Day 28 vs pre-treatment): 48%
% reduction of TNF-alpha ([5]; Day 28 vs pre-treatment): 43%
clinical activity (tumor size) ([5]; FIG. 4a): reduction in tumor size
